What was measured:
[1] = target: Serine/threonine-protein kinase pim-3 (Homo sapiens, UniProt Q86V86)
[2] = target: Serine/threonine-protein kinase pim-2 (Homo sapiens, UniProt Q9P1W9)
[3] = Intrinsic clearance from rat liver microsomes; assay type: ADME; settings: read-out: CLH
[4] = Cytotoxicity against wild type interleukin-3 dependent mouse BA/F3 cells after 72 hrs by CellTiter-Glo assay; assay type: functional, cell-based; settings: BaF3, 72 h
[5] = Cytotoxicity against human MM1S cells after 72 hrs by CellTiter-Glo assay; assay type: functional, cell-based; settings: MM1.S
[6] = Cytotoxicity against interleukin-3 independent mouse BA/F3 cells expressing PIM1 after 72 hrs by CellTiter-Glo assay; assay type: functional, cell-based; settings: BaF3, 72 h
[7] = Oral bioavailability in rat; assay type: ADME, organism-based; settings: in vivo
[8] = Plasma protein binding in rat; assay type: ADME, cell-free; settings: read-out: PPB (converted)
[9] = Plasma clearance in rat; assay type: ADME, organism-based
[10] = Apparent permeability from apical to basolateral side in MDCK cells; assay type: ADME, cell-based, Canis lupus familiaris; settings: dog
BaF3 = assay: Ratio of IC50 for wild type interleukin-3 dependent mouse BA/F3 cells to IC50 for interleukin-3 independent mouse BA/F3 cells expressing PIM1; assay type: functional
[11] = Efflux ratio of apparent permeability from basolateral to apical over apical to basolateral side in MDCK cells; assay type: ADME, cell-based, Canis lupus familiaris; settings: dog
[12] = target: Serine/threonine-protein kinase pim-1 (Homo sapiens, UniProt P11309)
Chain of Serine/threonine-protein kinase pim-1 (P11309 whole entry): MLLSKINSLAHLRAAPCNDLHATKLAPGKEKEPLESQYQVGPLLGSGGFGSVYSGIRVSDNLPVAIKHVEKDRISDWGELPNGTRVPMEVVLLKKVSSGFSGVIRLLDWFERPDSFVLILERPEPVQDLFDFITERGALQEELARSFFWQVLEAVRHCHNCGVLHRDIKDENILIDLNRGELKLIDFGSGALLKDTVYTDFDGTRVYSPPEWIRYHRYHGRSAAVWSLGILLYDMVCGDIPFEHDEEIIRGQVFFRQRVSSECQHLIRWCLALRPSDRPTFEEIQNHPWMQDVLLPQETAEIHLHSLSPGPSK

Chain of Serine/threonine-protein kinase pim-2 (Q9P1W9 whole entry): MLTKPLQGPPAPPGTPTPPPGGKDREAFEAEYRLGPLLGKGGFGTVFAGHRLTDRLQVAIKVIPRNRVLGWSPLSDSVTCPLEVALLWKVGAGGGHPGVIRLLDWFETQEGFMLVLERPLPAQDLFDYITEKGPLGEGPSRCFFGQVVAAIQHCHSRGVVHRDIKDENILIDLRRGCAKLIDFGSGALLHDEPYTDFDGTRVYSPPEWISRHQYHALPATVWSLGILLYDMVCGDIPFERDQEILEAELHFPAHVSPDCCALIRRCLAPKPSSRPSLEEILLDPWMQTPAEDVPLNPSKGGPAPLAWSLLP

O=C1CN(c2cc3c(-c4cccc(N5CCNCC5)n4)n[nH]c3cn2)CCN1 showed a Ki [1] of 1.4 nM and a Ki [2] of 17 nM.

In the case of CN1C(=O)CN(c2cc3c(-c4cccc(N5CCNCC5)n4)n[nH]c3cn2)C1=O, the Ki [1] is reported as 3.3 nM and the Ki [2] is reported as 33 nM.

Cc1ccc(-c2n[nH]c3cnc(-c4cnn(C)c4)cc23)nc1N1CCC[C@H](N)C1 showed a Ki [1] of 0.006 nM and a Ki [2] of 0.088 nM.

In the case of Cn1cc(-c2cc3c(-c4ccccn4)n[nH]c3cn2)cn1, the Ki [1] is reported as 3.7 nM and the Ki [2] is reported as 48 nM.

Work on CCn1cc(-c2cc3c(-c4cccc(N5CCNCC5)n4)n[nH]c3cn2)cn1 yielded a Ki [1] of 0.041 nM, a CLint scaled [3] of 150 mL/min/kg and an IC50 [4] of 5400 nM. It also gave an IC50 [5] of 640 nM, an IC50 [6] of 77 nM and a bioavailability [7] of 1%. The Ki [2] was 0.473 nM, the fraction unbound [8] was 0.022 and the clearance [9] was 14 mL/min/kg. For the same compound, the Papp A→B [10] was 0.5 ×10⁻⁶ cm/s, the “Ratio IC50” value (BaF3) was 70 and the efflux ratio [11] was 51.

NC(=O)Nc1cc2c(-c3cccc(N4CCNCC4)n3)n[nH]c2cn1 gave a Ki [1] of 0.68 nM and a Ki [2] of 1.1 nM.

With Cc1cncc(-c2cc3c(-c4cccc(N5CCNCC5)n4)n[nH]c3cn2)c1 the Ki [1] was 0.037 nM and the Ki [2] was 0.3 nM.

Compound Cn1cc(-c2cc3c(-c4cccc(N5CCCNCC5)n4)n[nH]c3cn2)cn1 has a Ki [1] of 0.013 nM, a Ki [12] of 0.02 nM and a Ki [2] of 0.17 nM.

Cn1cc(-c2cc3c(-c4cccc(N5CCC[C@H](N)C5)n4)n[nH]c3cn2)cn1 showed a Ki [1] of 0.015 nM and a Ki [2] of 0.26 nM.

Compound c1ccc(-c2n[nH]c3cnc(-c4cccnc4)cc23)nc1 has a Ki [12] of 10 nM and a Ki [2] of 70 nM.

Cn1cc(-c2cc3c(-c4cccc(N5CCNCC5)n4)n[nH]c3cn2)cn1 gave a Ki [1] of 0.017 nM and a Ki [2] of 0.58 nM.

In the case of Cc1n[nH]c2cnc(-c3cn[nH]c3)cc12, the Ki [1] is reported as 400 nM and the Ki [2] is reported as 900 nM.

Work on Cc1n[nH]c2ccc(-c3cn[nH]c3)cc12 yielded a Ki [1] of 3100 nM, a Ki [12] of 3200 nM and a Ki [2] of 2700 nM.

Cn1cc(-c2cc3c(-c4cccc(C5CCNCC5)n4)n[nH]c3cn2)cn1 showed a Ki [1] of 0.12 nM and a Ki [2] of 2.2 nM.

Compound Cn1cc(-c2cc3c(-c4cccc(N5CC[C@@H](N)C5)n4)n[nH]c3cn2)cn1 has a Ki [1] of 0.015 nM, a Ki [12] of 0.035 nM and a Ki [2] of 0.43 nM.

Work on c1cncc(-c2cc3c(-c4cccc(N5CCNCC5)n4)n[nH]c3cn2)c1 yielded a Ki [1] of 0.01 nM, a Ki [12] of 0.04 nM and a Ki [2] of 0.5 nM.

Work on Cn1cc(-c2cc3c(-c4cccc(O[C@@H]5CCCNC5)n4)n[nH]c3cn2)cn1 yielded a Ki [1] of 0.16 nM and a Ki [2] of 6.2 nM.

For N[C@H]1CCCN(c2ccncc2-c2cc3c(-c4ccccc4F)n[nH]c3cn2)C1, the Ki [1] was 6 nM and the Ki [2] was 35 nM.

Compound NCCNc1cccc(-c2n[nH]c3cnc(-c4cccnc4)cc23)n1 has a Ki [1] of 0.2 nM, a Ki [12] of 0.3 nM and a Ki [2] of 3 nM.

In the case of NC1CCN(c2cncc(-c3cc4c(-c5ccccc5F)n[nH]c4cn3)n2)CC1, the Ki [1] is reported as 0.1 nM, the Ki [12] is reported as 0.1 nM and the Ki [2] is reported as 3 nM.

Work on c1cc(-c2n[nH]c3cnc(C4CCCOC4)cc23)nc(N2CCNCC2)c1 (stereo unspecified) yielded a Ki [1] of 1 nM and a Ki [2] of 26 nM.

For c1cc(-c2n[nH]c3cnc(C4CCCO4)cc23)nc(N2CCNCC2)c1 (stereo unspecified), the Ki [12] was 8.5 nM and the Ki [2] was 82 nM.

In the case of c1cc(-c2n[nH]c3cnc(-n4ccnc4)cc23)nc(N2CCNCC2)c1, the Ki [1] is reported as 0.65 nM and the Ki [2] is reported as 5.4 nM.

Fc1ccccc1-c1n[nH]c2cnc(-c3cnccc3O[C@@H]3CCCNC3)cc12 showed a Ki [1] of 0.11 nM, a Ki [12] of 3.4 nM and a Ki [2] of 1.7 nM.

For c1cc(-c2n[nH]c3cnc(N4CCOCC4)cc23)nc(N2CCNCC2)c1, the Ki [1] was 4.4 nM and the Ki [2] was 14 nM.

For Cc1n[nH]c2cnc(-c3cccnc3)cc12, the Ki [1] was 300 nM, the Ki [12] was 200 nM and the Ki [2] was 800 nM.

Compound CCn1cncc(-c2cc3c(-c4cccc(N5CCNCC5)n4)n[nH]c3cn2)c1=O has a Ki [1] of 0.07 nM and a Ki [2] of 0.145 nM.

For O=C(Nc1cn[nH]c1)c1cccnc1, the Ki [1] was 2900 nM, the Ki [12] was 3300 nM and the Ki [2] was 15000 nM.

Work on Cc1n[nH]c2cnc(-c3cnccc3N3CCC[C@H](N)C3)cc12 yielded a Ki [1] of 5000 nM and a Ki [2] of 8300 nM.

With c1cncc(-c2cc3cn[nH]c3cn2)c1 the Ki [1] was 1800 nM, the Ki [12] was 1300 nM and the Ki [2] was 6000 nM.

c1cc(-c2n[nH]c3cnc(-c4cnn(CC5CC5)c4)cc23)nc(N2CCNCC2)c1 showed a Ki [1] of 0.016 nM and a Ki [2] of 0.253 nM.

Work on N#CCn1cc(-c2cc3c(-c4cccc(N5CCNCC5)n4)n[nH]c3cn2)cn1 yielded a Ki [1] of 0.013 nM and a Ki [2] of 0.127 nM.

Work on c1ccc(-c2n[nH]c3cnc(-c4cccnc4)cc23)cc1 yielded a Ki [1] of 5 nM, a Ki [12] of 10 nM and a Ki [2] of 50 nM.

With Cn1cc(-c2cc3c(-c4cccc(N5CCC[C@@H](N)C5)c4)n[nH]c3cn2)cn1 the Ki [1] was 0.29 nM and the Ki [2] was 1.25 nM.

Cc1n[nH]c2cnc(-c3cncc(N4CCC(N)CC4)n3)cc12 gave a Ki [1] of 9 nM, a Ki [12] of 6 nM and a Ki [2] of 170 nM.

With NC(=O)Cc1cc2c(-c3cccc(N4CCNCC4)n3)n[nH]c2cn1 the Ki [1] was 115 nM and the Ki [2] was 1100 nM.

Cc1cncc(-c2cc3c(-c4cccc(N5CCNCC5)n4)n[nH]c3cn2)n1 showed a Ki [1] of 0.01 nM and a Ki [2] of 0.049 nM.

Cc1c[nH]c2cnc(-c3cccnc3)cc12 showed a Ki [1] of 1500 nM, a Ki [12] of 800 nM and a Ki [2] of 3900 nM.

Work on Cn1cc(-c2cc3c(-c4cccc(N5CCC[C@@H](N)C5)n4)n[nH]c3cn2)cn1 yielded a Ki [1] of 0.021 nM and a Ki [2] of 0.72 nM.

— ChEMBL document CHEMBL3632547, “Discovery of 3,5-substituted 6-azaindazoles as potent pan-Pim inhibitors” (Bioorg Med Chem Lett, 2015)
